The results in this text go back to PubChem BioAssay (NCI).

Among the test systems are LOX IMVI melanoma; TK-10 renal; OVCAR-8 ovarian; SK-OV-3 ovarian; MALME-3M melanoma; ACHN renal; HCT-15 colon; EKVX NSCLC; IGROV1 ovarian; SN12C renal; SK-MEL-28 melanoma; HCC-2998 colon; CAKI-1 renal; SW-620 colon; 786-0 renal; NCI-H23 lung; CCRF-CEM leukemia; SK-MEL-2 melanoma.
What all share (test): NCI-60 cell line screen, 48 h

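Values below derive from 48-hour exposures of cells grown in 96-well plates, with endpoints linearly interpolated between the two concentrations bracketing the appropriate inhibition level. At the TGI there is no net growth.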

In the case of `NC(N)=NS(=O)(=O)c1ccc(Nc2c3ccccc3nc3c(C(=O)Nc4ccc(S(N)(=O)=O)cc4)ccc(Cl)c23)cc1`, the TGI in the assay with LOX IMVI melanoma, in the assay on TK-10 renal, with OVCAR-8 ovarian, in the assay with SK-OV-3 ovarian, with MALME-3M melanoma and with ACHN renal was more than 100 µM in each case. Further, the TGI in the assay on HCT-15 colon, in the assay on EKVX NSCLC, in the assay with IGROV1 ovarian, in the assay with SN12C renal, in the assay on SK-MEL-28 melanoma and with HCC-2998 colon was more than 100 µM in each case. In addition, the TGI in the assay on CAKI-1 renal, in the assay on SW-620 colon, with 786-0 renal and with NCI-H23 lung was more than 100 µM each time.
As to `CCCCCCCC(=O)OCC1OC(OC)C(NC(=O)N(CCCl)N=O)C(O)C1O` (stereo not given), the TGI in the assay on LOX IMVI melanoma stood at 23.8 µM; in the assay with TK-10 renal it was 58 µM; in the assay on CCRF-CEM leukemia, 40.5 µM; in the assay on OVCAR-8 ovarian, 57.2 µM; in the assay with SK-OV-3 ovarian it was 97.1 µM; with MALME-3M melanoma, 28.5 µM. For the same compound, the TGI was more than 100 µM with ACHN renal; 15.5 µM in the assay on HCT-15 colon; more than 83.9 µM with EKVX NSCLC; 67.1 µM with IGROV1 ovarian; 26.6 µM in the assay with SN12C renal; more than 100 µM in the assay with SK-MEL-28 melanoma. The TGI with HCC-2998 colon was 30.3 µM; with CAKI-1 renal, 32.6 µM; in the assay on SW-620 colon, 18.9 µM; in the assay with SK-MEL-2 melanoma, more than 57.2 µM; in the assay on 786-0 renal, 22.7 µM; in the assay on NCI-H23 lung, 29.4 µM.
For the compound `O=C1C(=Cc2cccc(O)c2)N=C(c2ccccc2)N1n1c(-c2ccccc2)nc2ccccc2c1=O`, the TGI in the assay on LOX IMVI melanoma is 52.5 µM; in the assay with TK-10 renal, more than 100 µM; with CCRF-CEM leukemia it was 75.5 µM; in the assay with OVCAR-8 ovarian, 98.5 µM; in the assay on SK-OV-3 ovarian, more than 100 µM; with MALME-3M melanoma, 92.3 µM. In addition, the TGI is 58 µM in the assay with ACHN renal; more than 100 µM with HCT-15 colon; more than 100 µM in the assay on EKVX NSCLC; 61.1 µM with IGROV1 ovarian; more than 100 µM with SN12C renal; more than 100 µM with SK-MEL-28 melanoma. The TGI was 85.8 µM in the assay on CAKI-1 renal, more than 100 µM in the assay with SW-620 colon, more than 100 µM with 786-0 renal and 88.5 µM with NCI-H23 lung.
On to `Cc1nn(C)cc1P(=S)(c1ccccc1)c1ccccc1`, for which the TGI in the assay on LOX IMVI melanoma, in the assay with TK-10 renal, in the assay on CCRF-CEM leukemia, in the assay on OVCAR-8 ovarian, in the assay on SK-OV-3 ovarian and in the assay on MALME-3M melanoma was more than 100 µM each time. Moreover, the TGI in the assay on ACHN renal, with HCT-15 colon, in the assay on EKVX NSCLC, in the assay on IGROV1 ovarian, with SN12C renal and in the assay on SK-MEL-28 melanoma was more than 100 µM in each case. Also, the TGI in the assay with HCC-2998 colon, with CAKI-1 renal, with SW-620 colon, with SK-MEL-2 melanoma, with 786-0 renal and with NCI-H23 lung was more than 100 µM each time.
On to `CN1Cc2cc3c(cc2-c2ccccc21)OCO3`, for which the TGI with LOX IMVI melanoma, in the assay on TK-10 renal, in the assay with CCRF-CEM leukemia, with OVCAR-8 ovarian, with ACHN renal and with EKVX NSCLC was more than 100 µM throughout. For the same compound, the TGI in the assay with IGROV1 ovarian, in the assay on SN12C renal, with SK-MEL-28 melanoma, in the assay on HCC-2998 colon, in the assay with SW-620 colon and with SK-MEL-2 melanoma was more than 100 µM each time. Further, the TGI in the assay with 786-0 renal and with NCI-H23 lung was more than 100 µM in each case.
With `CCOc1ccc(NC(=O)C2=C(C)NC(C)=C(C(=O)Nc3ccc(OCC)cc3)C2c2ccccc2)cc1`, the TGI in the assay on LOX IMVI melanoma, with TK-10 renal, in the assay on CCRF-CEM leukemia, in the assay with OVCAR-8 ovarian, with SK-OV-3 ovarian and in the assay on MALME-3M melanoma was more than 100 µM throughout. Further, the TGI in the assay on ACHN renal, in the assay with EKVX NSCLC, with IGROV1 ovarian, in the assay with SN12C renal, in the assay on SK-MEL-28 melanoma and with HCC-2998 colon was more than 100 µM each time. Also, the TGI in the assay with CAKI-1 renal, in the assay with SW-620 colon, with SK-MEL-2 melanoma, in the assay with 786-0 renal and in the assay on NCI-H23 lung was more than 100 µM throughout.
Consider `O=C(COC(=O)c1cccc2c(=O)c3ccccc3[nH]c12)Nc1ccccc1`, for which the TGI was 73.2 µM in the assay with LOX IMVI melanoma; more than 100 µM in the assay on TK-10 renal; more than 100 µM in the assay with OVCAR-8 ovarian; more than 100 µM with SK-OV-3 ovarian; more than 100 µM in the assay with MALME-3M melanoma; more than 100 µM in the assay on ACHN renal. The TGI in the assay on EKVX NSCLC, with IGROV1 ovarian, with SN12C renal, with SK-MEL-28 melanoma, in the assay on HCC-2998 colon and in the assay on CAKI-1 renal was more than 100 µM in each case. Besides, the TGI in the assay on SW-620 colon was more than 100 µM; with 786-0 renal it was more than 100 µM; with NCI-H23 lung, 58.9 µM.
Regarding `CCOC(=O)c1ccc(NC(=O)SCCC(=O)O)cc1`, the TGI with LOX IMVI melanoma, in the assay with TK-10 renal, in the assay on CCRF-CEM leukemia, in the assay on OVCAR-8 ovarian, in the assay on ACHN renal and in the assay on HCT-15 colon was more than 100 µM each time. In addition, the TGI with EKVX NSCLC, in the assay with IGROV1 ovarian, in the assay on SN12C renal, with SK-MEL-28 melanoma, in the assay with HCC-2998 colon and with SW-620 colon was more than 100 µM throughout. Also, the TGI in the assay with SK-MEL-2 melanoma, with 786-0 renal and with NCI-H23 lung was more than 100 µM in each case.
Turning to `COc1ccc(C=C(c2ccc(OCc3ccccc3)cc2)c2ccc(OCc3ccccc3)cc2)cc1`, the TGI with LOX IMVI melanoma, in the assay on TK-10 renal, with OVCAR-8 ovarian, in the assay on SK-OV-3 ovarian, with MALME-3M melanoma and in the assay on ACHN renal was more than 100 µM throughout. For the same compound, the TGI in the assay on HCT-15 colon, in the assay on EKVX NSCLC, in the assay with IGROV1 ovarian, in the assay with SN12C renal, in the assay with SK-MEL-28 melanoma and in the assay on HCC-2998 colon was more than 100 µM each time. The TGI in the assay with CAKI-1 renal, with SW-620 colon, in the assay on SK-MEL-2 melanoma, with 786-0 renal and in the assay on NCI-H23 lung was more than 100 µM each time.
With `COc1c(C)cc2c(c1O)C1NC(C2)[C@H](O)N2C3COC(=O)[C@@]4(CS[C@@H](c5c(OC(C)=O)c(C)c6c(c53)OCO6)C12)NCCC1=C4NC2C=CC=CC12` (stereo not given in full), the TGI in the assay on LOX IMVI melanoma is less than 0.01 µM; in the assay on TK-10 renal, 1.31 µM; in the assay on CCRF-CEM leukemia it was less than 0.01 µM; in the assay on OVCAR-8 ovarian, less than 0.01 µM; in the assay on MALME-3M melanoma, less than 0.01 µM; in the assay with ACHN renal, 0.0148 µM. Moreover, the TGI in the assay with HCT-15 colon is 0.113 µM; in the assay with EKVX NSCLC, 0.0306 µM; with IGROV1 ovarian it was less than 0.01 µM; in the assay on SN12C renal it was 0.0365 µM; in the assay with SK-MEL-28 melanoma, less than 0.01 µM; in the assay with HCC-2998 colon it was less than 0.01 µM. The TGI with SW-620 colon, in the assay with SK-MEL-2 melanoma, with 786-0 renal and in the assay with NCI-H23 lung was less than 0.01 µM each time.
For the compound `O=[N+]([O-])c1c(C=Nc2ccccc2)oc(-c2ccc3c(c2)OCO3)c1-c1ccc2c(c1)OCO2`, the TGI in the assay on LOX IMVI melanoma, with TK-10 renal, with OVCAR-8 ovarian, with SK-OV-3 ovarian, in the assay with MALME-3M melanoma and in the assay with ACHN renal was more than 100 µM throughout. The TGI in the assay with HCT-15 colon, in the assay on IGROV1 ovarian, with SN12C renal, in the assay with SK-MEL-28 melanoma, in the assay with HCC-2998 colon and in the assay on CAKI-1 renal was more than 100 µM each time. The TGI with SW-620 colon, in the assay with 786-0 renal and in the assay on NCI-H23 lung was more than 100 µM throughout.
`N#CCC(=O)N/N=C(\C(=O)Nc1ccc(Cl)c(Cl)c1)C1CN(c2ccccc2)N=C1N` (stereo not given): the TGI with LOX IMVI melanoma, in the assay with TK-10 renal, in the assay on CCRF-CEM leukemia, in the assay on OVCAR-8 ovarian, in the assay on SK-OV-3 ovarian and with MALME-3M melanoma was more than 100 µM throughout. The TGI in the assay on ACHN renal, in the assay with HCT-15 colon, with EKVX NSCLC, in the assay with IGROV1 ovarian, in the assay with SN12C renal and in the assay with SK-MEL-28 melanoma was more than 100 µM in each case. The TGI with HCC-2998 colon, with SK-MEL-2 melanoma, with 786-0 renal and with NCI-H23 lung was more than 100 µM in each case.
For `Brc1cc2c(cc1C1SCCS1)OCO2`, the TGI in the assay on LOX IMVI melanoma, in the assay with TK-10 renal, in the assay with CCRF-CEM leukemia, with OVCAR-8 ovarian, in the assay on SK-OV-3 ovarian and in the assay with MALME-3M melanoma was more than 100 µM throughout. Besides, the TGI with ACHN renal, in the assay with HCT-15 colon, in the assay on EKVX NSCLC, with IGROV1 ovarian, with SK-MEL-28 melanoma and with HCC-2998 colon was more than 100 µM throughout. The TGI in the assay with CAKI-1 renal, with SW-620 colon, with SK-MEL-2 melanoma, in the assay with 786-0 renal and in the assay on NCI-H23 lung was more than 100 µM each time.
